# Reference: patent US10265345B2 (priority 2008, dated 2019)
# Where two headings read alike, the source gives them in different places.
# Assays:
# [1] = test system: acute cerebral ischemia (MCAO) in rats; type: in vivo, Male Wistar rats; conditions: 3 mg/kg, 5 doses from 2 h after surgery, 48 h
# [2] = test system: acute cerebral ischemia (MCAO) in rats; parameters: species or system Male Wistar rats; conditions: rat, in vivo, 3 mg/kg
# [3] = test system: lactic acid in brain tissues; assay: Level of lactic acid in brain tissues 48 hours after permanent MCAO; type: in vivo, Male Wistar rats; conditions: rat brain tissues, 3 mg/kg
# [4] = test system: superoxide dismutase (SOD); type: in vivo, Male Wistar rats; conditions: rat brain tissues, 3 mg/kg, 48 hours after permanent MCAO
smiles,measurement,setting,value
"CC1=NN(c2ccccc2)C(=O)C1 [Edaravone, edaravone]",Scores of MCAO neurological symptoms,[1]; model group 5.3 ± 2.8,4.3 ± 1.6
same,Scores of MCAO neurological symptoms,"[1]; model group 5.3 ± 2.8, listed as edaravone",no significant difference
same,Volume (area) of cerebral infarction,[2],decreased significantly
same,Level of Lactic acid,"[3]; model 0.98 ± 0.09, sham 0.37 ± 0.01",0.64 ± 0.08 mmol/g protein
same,Level of Lactic acid,"[3]; model 0.98 ± 0.09, sham 0.37 ± 0.01, listed as edaravone",0.64±0.08 mmol/g protein
same,SOD Activity,[4],234.66 ± 15.85 U/mg pro
same,SOD Activity,[4]; listed as edaravone,significantly increased
